Measurements published in patent US20260347364A1, “PYRAZOLO[4,3-F]QUINAZOLINE DERIVATIVES AS MODULATORS OF G12D MUTANT KRAS USEFUL FOR THE TREATMENT OF CANCER” (JAZZ PHARMACEUTICALS IRELAND LTD., priority 2023, published 2026).

Tests used:
KRAS G12D = biological target: T1, KRAS G12D (Homo sapiens, UniProt P01116, G12D); experiment: HTRF nucleotide exchange assay, KRAS G12D; type: biochemical; conditions: HTRF nucleotide exchange assay (NEA), class symbols
T1 construct: aa1-188 KRAS WT, HRAS WT, NRAS WT, or KRAS containing the G12D

KRAS WT = biological target: T2, KRAS WT (Homo sapiens, UniProt P01116); experiment: HTRF nucleotide exchange assay, KRAS WT; type: biochemical; conditions: class symbols; for IC50: HTRF nucleotide exchange assay (NEA)
T2 construct: aa1-188 KRAS WT
T2 sequence (P01116 1-188 isoform P01116-2): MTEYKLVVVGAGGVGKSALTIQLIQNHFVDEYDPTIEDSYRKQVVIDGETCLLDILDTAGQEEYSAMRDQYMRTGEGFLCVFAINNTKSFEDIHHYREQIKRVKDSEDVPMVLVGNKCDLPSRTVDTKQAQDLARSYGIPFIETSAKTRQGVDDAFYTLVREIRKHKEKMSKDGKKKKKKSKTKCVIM

T1 sequence (P01116 1-188 isoform P01116-2 G12D): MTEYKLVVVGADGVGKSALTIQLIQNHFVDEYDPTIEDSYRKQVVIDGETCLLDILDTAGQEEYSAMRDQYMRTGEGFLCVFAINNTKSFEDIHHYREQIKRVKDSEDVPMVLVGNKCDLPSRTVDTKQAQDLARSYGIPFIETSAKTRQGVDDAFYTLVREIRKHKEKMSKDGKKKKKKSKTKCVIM

IC50 (KRAS G12D) [µM]	IC50 (KRAS WT) [µM]	KRAS^WT NEA (KRAS WT)	Structure (SMILES)
≤ 0.01	≤ 0.01		CCc1c(F)ccc2cc(O)cc(-c3c(F)c4nc(OCC5(C)CC(O)CN5)nc(N5CCOCC(C)(O)C5)c4c4cn(C)nc34)c12 (stereo not shown) [Example 152, 4-[4-(8-ethyl-7-fluoro-3-hydroxy-1-naphthyl)-5-fluoro-7-[(4-hydroxy-2-methyl-pyrrolidin-2-yl)methoxy]-2-methyl-pyrazolo[4,3-f]quinazolin-9-yl]-6-methyl-1,4-oxazepan-6-ol]
0.01 to 0.1	0.01 to 0.1		CCc1c(F)ccc2cc(O)cc(-c3cc4nc(OCC5(CN(C)C)CC5)nc(N5CCCOCC5)c4c4cn(C)nc34)c12 [Example 30, 4-[7-[[1-[(dimethylamino)methyl]cyclopropyl]methoxy]-2-methyl-9-(1,4-oxazepan-4-yl)pyrazolo[4,3-f]quinazolin-4-yl]-5-ethyl-6-fluoro-naphthalen-2-ol]
≤ 0.01	≤ 0.01		CCc1c(F)ccc2cc(O)cc(-c3cc4nc(OCC5(C)C[C@@H](O)CN5C)nc(N5CCCn6nc(C(=O)N(C)C)cc6C5)c4c4cn(C)nc34)c12 (mixture of isomers) [Example 68, 5-[4-(8-ethyl-7-fluoro-3-hydroxy-1-naphthyl)-2-methyl-7-[rac-(4R)-4-hydroxy-1,2-dimethyl-pyrrolidin-2-yl]methoxy]pyrazolo[4,3-f]quinazolin-9-yl]-N,N-dimethyl-4,6,7,8-tetrahydropyrazolo[1,5-a][1,4]diazepine-2-carboxamide]
0.1 to 10		D (<49% inhibition at 10 μM)	CCc1c(F)ccc2cc(O)cc(-c3cc4nc(OC[C@]5(C)CCCN5)nc(N5CCCn6nc(C(=O)N(C)C)cc6C5)c4c4cn(C)nc34)c12 [Example 53, 5-[4-(8-ethyl-7-fluoro-3-hydroxy-1-naphthyl)-2-methyl-7-[[(2S)-2-methylpyrrolidin-2-yl]methoxy]pyrazolo[4,3-f]quinazolin-9-yl]-N,N-dimethyl-4,6,7,8-tetrahydropyrazolo[1,5-a][1,4]diazepine-2-carboxamide]
≤ 0.01	≤ 0.01		Cc1c(-c2ccc(F)c3sc(N)c(C#N)c23)c2nn(C)cc2c2c(N3CCCn4nc(C(=O)N(C)C)cc4C3)nc(OC[C@@]34CCCN3C[C@H](F)C4)nc12 [Example 101, 5-[4-(2-amino-3-cyano-7-fluoro-benzothiophen-4-yl)-7-[[(2R,8S)-2-fluoro-1,2,3,5,6,7-hexahydropyrrolizin-8-yl]methoxy]-2,5-dimethyl-pyrazolo[4,3-f]quinazolin-9-yl]-N,N-dimethyl-4,6,7,8-tetrahydropyrazolo[1,5-a][1,4]diazepine-2-carboxamide]
≤ 0.01	0.01 to 0.1		CCc1c(F)ccc2cc(O)cc(-c3c(F)c4nc(OCC56COC(COC)(C5)C6)nc(N5CCCn6nc(C(=O)N(C)C)cc6C5)c4c4cn(C)nc34)c12 [Example 208, 5-[4-(8-ethyl-7-fluoro-3-hydroxy-1-naphthyl)-5-fluoro-7-[[1-(methoxymethyl)-2-oxabicyclo[2.1.1]hexan-4-yl]methoxy]-2-methyl-pyrazolo[4,3-f]quinazolin-9-yl]-N,N-dimethyl-4,6,7,8-tetrahydropyrazolo[1,5-a][1,4]diazepine-2-carboxamide]
≤ 0.01	≤ 0.01		CCc1c(F)ccc2cc(O)cc(-c3c(C)c4nc(OC[C@]5(C)CCCN5)nc(N5CCOCC(C)(O)C5)c4c4cn(C)nc34)c12 (stereo partly drawn) [Example 139, 4-[4-(8-ethyl-7-fluoro-3-hydroxy-1-naphthyl)-2,5-dimethyl-7-[[(2S)-2-methylpyrrolidin-2-yl]methoxy]pyrazolo[4,3-f]quinazolin-9-yl]-6-methyl-1,4-oxazepan-6-ol]
≤ 0.01	0.01 to 0.1		CCc1c(F)ccc2cc(O)cc(-c3cc4nc(OC[C@@]56CCCN5C[C@H](F)C6)nc(N5CCCNCC5)c4c4cn(C)nc34)c12 [Example 20, 4-[9-(1,4-diazepan-1-yl)-2-methyl-7-[[(2R,8S)-2-fluoro-1,2,3,5,6,7-hexahydropyrrolizin-8-yl]methoxy]pyrazolo[4,3-f]quinazolin-4-yl]-5-ethyl-6-fluoro-naphthalen-2-ol]
≤ 0.01	0.01 to 0.1		CN(C)C(=O)c1cc2n(n1)CCCN(c1nc(OC[C@@]34CCCN3C[C@H](F)C4)nc3cc(-c4ccc(F)c5sc(N)c(C#N)c45)c4nn(C)cc4c13)C2 [Example 81, 5-[4-(2-amino-3-cyano-7-fluoro-benzothiophen-4-yl)-7-[[(2R,8S)-2-fluoro-1,2,3,5,6,7-hexahydropyrrolizin-8-yl]methoxy]-2-methyl-pyrazolo[4,3-f]quinazolin-9-yl]-N,N-dimethyl-4,6,7,8-tetrahydropyrazolo[1,5-a][1,4]diazepine-2-carboxamide]
≤ 0.01	≤ 0.01		CCc1c(F)ccc2cc(O)cc(-c3cc4nc(OC[C@@]56CCCN5C[C@H](F)C6)nc(N5CCOCC(O)C5)c4c4cn(C)nc34)c12 (stereo partly drawn) [Example 120, 4-[4-(8-ethyl-7-fluoro-3-hydroxy-1-naphthyl)-2-methyl-7-[[(2R,8S)-2-fluoro-1,2,3,5,6,7-hexahydropyrrolizin-8-yl]methoxy]pyrazolo[4,3-f]quinazolin-9-yl]-1,4-oxazepan-6-ol]
≤ 0.01	0.01 to 0.1		CCc1c(F)ccc2cc(O)cc(-c3c(C)c4nc(OC[C@]5(C)CCCN5C)nc(N5CCC[C@@](C)(O)C5)c4c4cn(C)nc34)c12 [Example 234]
≤ 0.01	≤ 0.01		CCc1c(F)ccc2cc(O)cc(-c3c(C)c4nc(OCC5(C)C[C@@H](O)CN5C)nc(N5CCOCC(C)(O)C5)c4c4cn(C)nc34)c12 (stereo partly drawn) [Example 141, 4-[4-(8-ethyl-7-fluoro-3-hydroxy-1-naphthyl)-2,5-dimethyl-7-[[(4R)-4-hydroxy-1,2-dimethyl-pyrrolidin-2-yl]methoxy]pyrazolo[4,3-f]quinazolin-9-yl]-6-methyl-1,4-oxazepan-6-ol]
≤ 0.01	≤ 0.01		CCc1c(F)ccc2cc(O)cc(-c3cc4nc(OC[C@@]56CCCN5C[C@H](F)C6)nc(N5CCCCC(C)(O)C5)c4c4cn(C)nc34)c12 (stereo partly drawn) [Example 10, 1-[4-(8-ethyl-7-fluoro-3-hydroxy-1-naphthyl)-2-methyl-7-[[(2R,8S)-2-fluoro-1,2,3,5,6,7-hexahydropyrrolizin-8-yl]methoxy]pyrazolo[4,3-f]quinazolin-9-yl]-3-methyl-azepan-3-ol]
≤ 0.01	≤ 0.01		CCc1c(F)ccc2cc(O)cc(-c3c(C)c4nc(OC[C@@]56CCCN5C[C@H](F)C6)nc(N5CCCOCC5)c4c4cn(C)nc34)c12 [Example 79, 4-[2,5-dimethyl-9-(1,4-oxazepan-4-yl)-7-[[(2R,8S)-2-fluoro-1,2,3,5,6,7-hexahydropyrrolizin-8-yl]methoxy]pyrazolo[4,3-f]quinazolin-4-yl]-5-ethyl-6-fluoro-naphthalen-2-ol]
≤ 0.01	0.01 to 0.1		CCc1c(F)ccc2cc(O)cc(-c3cc4nc(OC[C@@H]5CCN5)nc(N5CCCn6nc(C(=O)N(C)C)cc6C5)c4c4cn(C)nc34)c12 [Example 50, 5-[4-(8-ethyl-7-fluoro-3-hydroxy-1-naphthyl)-2-methyl-7-[[(2S)-azetidin-2-yl]methoxy]pyrazolo[4,3-f]quinazolin-9-yl]-N,N-dimethyl-4,6,7,8-tetrahydropyrazolo[1,5-a][1,4]diazepine-2-carboxamide]
≤ 0.01	≤ 0.01		CCc1c(F)ccc2cc(O)cc(-c3c(F)c4nc(OC[C@@]56CCCN5C[C@H](F)C6)nc(N5CCCC(C#N)C5)c4c4cn(C)nc34)c12 (stereo partly drawn) [Example 176, 1-[4-(8-ethyl-7-fluoro-3-hydroxy-1-naphthyl)-5-fluoro-2-methyl-7-[[(2R,8S)-2-fluoro-1,2,3,5,6,7-hexahydropyrrolizin-8-yl]methoxy]pyrazolo[4,3-f]quinazolin-9-yl]piperidine-3-carbonitrile]
≤ 0.01	≤ 0.01		CCc1c(F)ccc2cc(O)cc(-c3c(F)c4nc(OC[C@@]56CCCN5C[C@H](F)C6)nc(N5CCOCC(O)C5)c4c4cn(C)nc34)c12 (stereo partly drawn) [Example 223, 4-[4-(8-ethyl-7-fluoro-3-hydroxy-1-naphthyl)-5-fluoro-7-[[(2R,8S)-2-fluoro-1,2,3,5,6,7-hexahydropyrrolizin-8-yl]methoxy]-2-methyl-pyrazolo[4,3-f]quinazolin-9-yl]-1,4-oxazepan-6-ol]
≤ 0.01	≤ 0.01		CCc1c(F)ccc2cc(O)cc(-c3c(C)c4nc(OC[C@@]56CCCN5C[C@H](F)C6)nc(N5CCCn6nc(C(=O)N7CCCC7)cc6C5)c4c4cn(C)nc34)c12 [Example 182, [5-[4-(8-ethyl-7-fluoro-3-hydroxy-1-naphthyl)-7-[[(2R,8S)-2-fluoro-1,2,3,5,6,7-hexahydropyrrolizin-8-yl]methoxy]-2,5-dimethyl-pyrazolo[4,3-f]quinazolin-9-yl]-4,6,7,8-tetrahydropyrazolo[1,5-a][1,4]diazepin-2-yl]-pyrrolidin-1-yl-methanone]
≤ 0.01	≤ 0.01		CCc1c(F)ccc2cc(O)cc(-c3c(F)c4nc(OCC5(CN6CC(C)OC(C)C6)CC5)nc(N5CCOCC(C)(O)C5)c4c4cn(C)nc34)c12 (stereo not shown) [Example 246, 4-[7-[[1-[(2,6-dimethylmorpholin-4-yl)methyl]cyclopropyl]methoxy]-4-(8-ethyl-7-fluoro-3-hydroxy-1-naphthyl)-5-fluoro-2-methyl-pyrazolo[4,3-f]quinazolin-9-yl]-6-methyl-1,4-oxazepan-6-ol]
0.1 to 10	0.1 to 10		Cc1c(-c2ncc(F)c3sc(N)c(C#N)c23)c2nn(C)cc2c2c(N3CCOCC(C)(O)C3)nc(OC[C@@]34CCCN3C[C@H](F)C4)nc12 (stereo partly drawn) [Example 108, 2-amino-7-fluoro-4-[7-[[(2R,8S)-2-fluoro-1,2,3,5,6,7-hexahydropyrrolizin-8-yl]methoxy]-9-(6-hydroxy-6-methyl-1,4-oxazepan-4-yl)-2,5-dimethyl-pyrazolo[4,3-f]quinazolin-4-yl]thieno[3,2-c]pyridine-3-carbonitrile]
